“And” between values parts separate entries of the source, which are not always exact repeats. Equal values may be shown once. Read-outs that look alike come from different tables or passages of the source.
Tests used:
[1] = target: Human mTOR (FLAG-TOR) (Homo sapiens, UniProt P42345); assay: mTOR kinase assay (DELFIA format, purified enzyme); format: biochemical; conditions: read-out: IC50 mTOR
[2] = system: human breast MDA-MB-361 tumor cell line; assay: In vitro cell culture growth assay (MTS), MDA-MB-361; format: cell-based; conditions: Homo sapiens, MTS cell growth assay, three days after drug treatment, read-out: IC50 MDA-MB-361
[3] = system: human prostate PC3-mm2 tumor cell line; assay: In vitro cell culture growth assay (MTS), PC3-mm2; format: cell-based; conditions: Homo sapiens, PC3MM2, 72 h, MTS cell growth assay, three days after drug treatment, read-out: IC50 PC3-mm2
[4] = target: PI3K-α (Homo sapiens, UniProt P42336); assay: PI3K-alpha fluorescence polarization assay; conditions: read-out: IC50 PI3Kα
Chain of PI3K-α (P42336 whole entry, species assumed): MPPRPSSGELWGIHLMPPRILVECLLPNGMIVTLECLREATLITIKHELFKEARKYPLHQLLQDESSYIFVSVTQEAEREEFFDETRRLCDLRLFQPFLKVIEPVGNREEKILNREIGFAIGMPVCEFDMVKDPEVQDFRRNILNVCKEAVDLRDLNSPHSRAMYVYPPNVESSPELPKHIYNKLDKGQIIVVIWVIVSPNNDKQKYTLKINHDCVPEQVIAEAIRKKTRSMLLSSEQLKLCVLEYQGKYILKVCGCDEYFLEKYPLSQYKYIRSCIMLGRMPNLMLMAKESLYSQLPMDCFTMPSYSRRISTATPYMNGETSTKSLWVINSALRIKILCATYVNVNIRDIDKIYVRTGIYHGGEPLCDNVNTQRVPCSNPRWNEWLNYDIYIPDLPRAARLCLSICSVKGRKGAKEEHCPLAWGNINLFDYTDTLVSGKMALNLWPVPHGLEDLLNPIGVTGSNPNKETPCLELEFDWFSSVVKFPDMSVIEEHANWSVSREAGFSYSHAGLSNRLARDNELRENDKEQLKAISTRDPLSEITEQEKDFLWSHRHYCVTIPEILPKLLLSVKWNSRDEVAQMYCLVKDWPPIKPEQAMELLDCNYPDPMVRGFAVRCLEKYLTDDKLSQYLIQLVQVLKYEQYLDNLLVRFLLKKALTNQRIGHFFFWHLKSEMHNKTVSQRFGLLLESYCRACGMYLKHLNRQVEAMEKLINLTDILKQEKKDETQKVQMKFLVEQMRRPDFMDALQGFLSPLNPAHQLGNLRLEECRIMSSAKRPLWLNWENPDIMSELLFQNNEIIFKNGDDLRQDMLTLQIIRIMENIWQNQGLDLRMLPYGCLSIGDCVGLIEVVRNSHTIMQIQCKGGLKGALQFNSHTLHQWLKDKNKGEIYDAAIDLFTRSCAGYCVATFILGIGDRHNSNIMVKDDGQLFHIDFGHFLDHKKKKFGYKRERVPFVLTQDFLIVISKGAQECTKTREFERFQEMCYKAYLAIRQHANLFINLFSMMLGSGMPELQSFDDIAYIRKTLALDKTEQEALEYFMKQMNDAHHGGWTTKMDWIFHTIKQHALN
Chain of PI3K-α (P27986 whole entry partner, species assumed): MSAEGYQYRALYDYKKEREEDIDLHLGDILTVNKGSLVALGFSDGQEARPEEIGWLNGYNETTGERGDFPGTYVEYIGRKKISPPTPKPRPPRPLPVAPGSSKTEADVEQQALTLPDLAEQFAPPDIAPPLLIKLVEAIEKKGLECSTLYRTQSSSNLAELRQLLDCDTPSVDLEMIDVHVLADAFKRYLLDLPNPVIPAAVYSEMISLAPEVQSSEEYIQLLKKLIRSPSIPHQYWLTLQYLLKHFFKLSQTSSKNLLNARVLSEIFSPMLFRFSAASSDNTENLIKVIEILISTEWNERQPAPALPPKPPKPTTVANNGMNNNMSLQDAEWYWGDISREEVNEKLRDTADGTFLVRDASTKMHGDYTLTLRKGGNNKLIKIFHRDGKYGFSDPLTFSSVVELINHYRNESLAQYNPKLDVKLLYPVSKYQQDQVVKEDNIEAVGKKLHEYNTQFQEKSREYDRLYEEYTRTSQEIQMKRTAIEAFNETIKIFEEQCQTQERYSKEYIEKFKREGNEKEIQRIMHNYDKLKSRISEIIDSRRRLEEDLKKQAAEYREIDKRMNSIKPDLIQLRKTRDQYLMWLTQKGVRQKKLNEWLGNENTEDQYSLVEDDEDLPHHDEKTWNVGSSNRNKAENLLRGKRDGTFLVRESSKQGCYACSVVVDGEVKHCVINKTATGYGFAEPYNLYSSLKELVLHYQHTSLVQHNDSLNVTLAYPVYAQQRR

[5] = target: PI3K-γ (Homo sapiens, UniProt P48736); assay: PI3K-gamma fluorescence polarization assay; conditions: read-out: IC50 PI3Kγ
Chain of PI3K-γ (P48736 whole entry, species assumed): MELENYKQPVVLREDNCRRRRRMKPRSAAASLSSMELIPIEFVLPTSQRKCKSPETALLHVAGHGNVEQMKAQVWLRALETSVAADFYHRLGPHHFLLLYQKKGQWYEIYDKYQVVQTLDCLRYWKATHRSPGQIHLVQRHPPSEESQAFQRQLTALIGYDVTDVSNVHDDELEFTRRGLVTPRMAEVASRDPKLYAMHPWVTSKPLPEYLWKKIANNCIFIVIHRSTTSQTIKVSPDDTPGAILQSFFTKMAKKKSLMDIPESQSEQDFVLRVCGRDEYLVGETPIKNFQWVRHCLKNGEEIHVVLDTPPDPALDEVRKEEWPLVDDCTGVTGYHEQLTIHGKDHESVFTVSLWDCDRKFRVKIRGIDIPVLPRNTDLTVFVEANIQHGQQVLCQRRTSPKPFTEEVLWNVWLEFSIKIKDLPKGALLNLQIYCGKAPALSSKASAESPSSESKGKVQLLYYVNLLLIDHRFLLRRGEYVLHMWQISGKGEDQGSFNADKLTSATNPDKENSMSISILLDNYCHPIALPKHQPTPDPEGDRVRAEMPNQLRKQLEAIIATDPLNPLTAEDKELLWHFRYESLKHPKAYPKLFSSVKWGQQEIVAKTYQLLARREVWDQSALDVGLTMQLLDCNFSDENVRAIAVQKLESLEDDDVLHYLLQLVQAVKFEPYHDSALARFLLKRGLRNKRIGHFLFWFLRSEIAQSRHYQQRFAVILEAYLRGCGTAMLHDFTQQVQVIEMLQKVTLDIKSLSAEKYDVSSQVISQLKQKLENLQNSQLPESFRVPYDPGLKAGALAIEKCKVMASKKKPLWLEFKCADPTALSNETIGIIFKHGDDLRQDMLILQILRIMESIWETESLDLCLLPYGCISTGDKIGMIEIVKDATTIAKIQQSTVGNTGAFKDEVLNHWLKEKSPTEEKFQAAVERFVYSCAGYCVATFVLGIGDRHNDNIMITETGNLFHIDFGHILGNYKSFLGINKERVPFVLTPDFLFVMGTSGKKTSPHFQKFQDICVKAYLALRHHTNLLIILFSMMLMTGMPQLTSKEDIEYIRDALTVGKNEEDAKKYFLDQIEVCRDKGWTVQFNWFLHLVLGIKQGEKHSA

[6] = MDA-MB-361, 72 h, MDA-MB-361 cells

Chain of Human mTOR (FLAG-TOR) (P42345 1360-2549 limits assumed): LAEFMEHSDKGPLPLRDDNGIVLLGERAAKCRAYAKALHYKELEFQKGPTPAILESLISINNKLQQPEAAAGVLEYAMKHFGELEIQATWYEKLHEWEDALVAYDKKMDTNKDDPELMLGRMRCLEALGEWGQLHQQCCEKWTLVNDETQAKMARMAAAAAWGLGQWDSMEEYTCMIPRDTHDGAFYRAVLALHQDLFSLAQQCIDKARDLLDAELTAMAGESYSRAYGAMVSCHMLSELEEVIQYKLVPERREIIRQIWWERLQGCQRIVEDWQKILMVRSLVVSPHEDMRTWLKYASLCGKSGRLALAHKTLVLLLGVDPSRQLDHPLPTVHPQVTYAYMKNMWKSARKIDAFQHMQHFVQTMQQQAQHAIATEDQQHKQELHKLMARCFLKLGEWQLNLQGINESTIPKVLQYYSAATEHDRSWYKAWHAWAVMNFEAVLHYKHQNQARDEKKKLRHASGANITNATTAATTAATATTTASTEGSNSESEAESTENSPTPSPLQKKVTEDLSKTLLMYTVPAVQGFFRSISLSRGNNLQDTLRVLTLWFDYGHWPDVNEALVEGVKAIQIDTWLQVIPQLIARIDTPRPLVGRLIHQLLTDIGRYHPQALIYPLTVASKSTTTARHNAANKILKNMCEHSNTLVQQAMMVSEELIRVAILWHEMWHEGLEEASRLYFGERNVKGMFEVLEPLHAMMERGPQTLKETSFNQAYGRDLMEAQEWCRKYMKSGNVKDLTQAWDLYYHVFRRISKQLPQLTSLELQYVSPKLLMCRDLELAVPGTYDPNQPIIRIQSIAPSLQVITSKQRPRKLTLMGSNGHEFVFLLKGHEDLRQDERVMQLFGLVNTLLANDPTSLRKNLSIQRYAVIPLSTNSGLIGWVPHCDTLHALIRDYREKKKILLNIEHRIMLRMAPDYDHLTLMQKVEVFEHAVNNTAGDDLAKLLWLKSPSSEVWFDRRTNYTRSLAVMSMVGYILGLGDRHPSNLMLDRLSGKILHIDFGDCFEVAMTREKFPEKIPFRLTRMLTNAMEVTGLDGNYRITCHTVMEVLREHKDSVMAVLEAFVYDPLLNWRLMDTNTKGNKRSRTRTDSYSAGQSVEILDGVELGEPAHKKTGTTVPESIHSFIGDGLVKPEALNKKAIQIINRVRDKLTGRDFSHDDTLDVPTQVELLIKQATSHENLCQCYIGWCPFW

| IC50 [1] | IC50 [2, 6] [nM] | IC50 ([2]; MDA-MB-361, 72 h) [nM] | IC50 ([3]; PC3-mm2 cells) [nM] | IC50 [3] [nM] | IC50 [4] [nM] | IC50 [5] [nM] | IC50 ([5]; listed as 497) [nM] | IC50 ([2]; 72 h, MDA-MB-361 cells) [nM] | Compound |
| --- | --- | --- | --- | --- | --- | --- | --- | --- | --- |
| 4.2 nM and 4.6 nM | 50 | 50 | 66 | 66 | 3 | 16 | 19 |  | Nc1ccc(NC(=O)Nc2ccc(-c3nc(N4CCOCC4)nc(N4CCOCC4)n3)cc2)cc1 [Example 351, 1-(4-aminophenyl)-3-[4-(4,6-dimorpholin-4-yl-1,3,5-triazin-2-yl)phenyl]urea] |
| 1.8 nM |  |  | 339 |  | 32.3 | 27 |  | 175 | CC(C)c1nc(-c2ccc(NC(=O)Nc3ccc(-c4cncnc4)cc3)cc2)nc(N2CCOCC2)n1 [Example 487, 1-{4-[4-(1-methylethyl)-6-morpholin-4-yl-1,3,5-triazin-2-yl]phenyl}-3-(4-pyrimidin-5-ylphenyl)urea] |
| 1.1 nM | 8 |  | 35 |  | 3.5 | 17 |  |  | CC(C)c1nc(-c2ccc(NC(=O)Nc3ccc(C(=O)N4CCN(C(C)C)CC4)cc3)cc2)nc(N2CCOCC2)n1 [Example 491, 1-{4-[4-(1-methylethyl)-6-morpholin-4-yl-1,3,5-triazin-2-yl]phenyl}-3-(4-{[4-(1-methylethyl)piperazin-1-yl]carbonyl}phenyl)urea] |
| 4.2 nM |  |  | 276 |  | 16.5 | 104 |  | 115 | CC(C)(C)OC(=O)N1CC(Oc2nc(-c3ccc(NC(=O)Nc4ccncc4)cc3)nc(N3CCOCC3)n2)C1 [Example 494, tert-butyl 3-[(4-morpholin-4-yl-6-{4-[(pyridin-4-ylcarbamoyl)amino]phenyl}-1,3,5-triazin-2-yl)oxy]azetidine-1-carboxylate] |
| 2.35 nM | 4 |  | 16.5 |  | < 1.7 | 2.5 |  |  | CN1CCN(C(=O)Nc2ccc(NC(=O)Nc3ccc(-c4nc(N5CCOCC5)nc(N5CCOCC5)n4)cc3)cc2)CC1 [Example 498, N-[4-({[4-(4,6-dimorpholin-4-yl-1,3,5-triazin-2-yl)phenyl]carbamoyl}amino)phenyl]-4-methylpiperazine-1-carboxamide] |
| 2.2 nM | 21 |  | 31 |  | < 1.9 | 4.5 |  |  | CN(C)C1CCN(C(=O)Nc2ccc(NC(=O)Nc3ccc(-c4nc(N5CCOCC5)nc(N5CCOCC5)n4)cc3)cc2)CC1 [Example 499, 4-(dimethylamino)-N-[4-({[4-(4,6-dimorpholin-4-yl-1,3,5-triazin-2-yl)phenyl]carbamoyl}amino)phenyl]piperidine-1-carboxamide] |
| 0.69 nM |  |  | 41 |  | < 1.75 | 6.5 |  | < 31 | O=C(NCCN1CCCCC1)Nc1ccc(NC(=O)Nc2ccc(-c3nc(N4CCOCC4)nc(N4CCOCC4)n3)cc2)cc1 [Example 501, 1-[4-(4,6-dimorpholin-4-yl-1,3,5-triazin-2-yl)phenyl]-3-(4-{[(2-piperidin-1-ylethyl)carbamoyl]amino}phenyl)urea] |
| 1 nM |  |  | 11 |  | 0.5 | 6 |  | 4 | CN1CCCN(C(=O)Nc2ccc(NC(=O)Nc3ccc(-c4nc(N5CCOCC5)nc(N5CCOCC5)n4)cc3)cc2)CC1 [Example 502, N-[4-({[4-(4,6-dimorpholin-4-yl-1,3,5-triazin-2-yl)phenyl]carbamoyl}amino)phenyl]-4-methyl-1,4-diazepane-1-carboxamide] |
| 1.35 nM | 22.5 |  | 25.5 |  | 1.8 | 10 |  |  | CN(C)C(=O)Nc1ccc(NC(=O)Nc2ccc(-c3nc(N4CCOCC4)nc(N4CCOCC4)n3)cc2)cc1 [Example 504, 1-{4-[(dimethylcarbamoyl)amino]phenyl}-3-[4-(4,6-dimorpholin-4-yl-1,3,5-triazin-2-yl)phenyl]urea] |
| 0.52 nM | 2 |  | 10 |  | 2.3 | 10.3 |  |  | CN1CCN(C(=O)c2ccc(NC(=O)Nc3ccc(-c4nc(C5CCOCC5)nc(N5CCOCC5)n4)cc3)cc2)CC1 [Example 511, 1-{4-[(4-methylpiperazin-1-yl)carbonyl]phenyl}-3-{4-[4-morpholin-4-yl-6-(tetrahydro-2H-pyran-4-yl)-1,3,5-triazin-2-yl]phenyl}urea] |
| 0.12 nM |  |  | 8 |  | < 1.9 | 10 |  | 1 | CN(C)CCNC(=O)c1ccc(NC(=O)Nc2ccc(-c3nc(C4CCOCC4)nc(N4CCOCC4)n3)cc2)cc1 [Example 512, N-[2-(dimethylamino)ethyl]-4-[({4-[4-morpholin-4-yl-6-(tetrahydro-2H-pyran-4-yl)-1,3,5-triazin-2-yl]phenyl}carbamoyl)amino]benzamide] |
| 0.12 nM |  |  | 13 |  | < 2.4 | 12 |  | 2 | O=C(Nc1ccc(C(=O)NCCN2CCCC2)cc1)Nc1ccc(-c2nc(C3CCOCC3)nc(N3CCOCC3)n2)cc1 [Example 513, 4-[({4-[4-morpholin-4-yl-6-(tetrahydro-2H-pyran-4-yl)-1,3,5-triazin-2-yl]phenyl}carbamoyl)amino]-N-(2-pyrrolidin-1-ylethyl)benzamide] |
| 0.17 nM |  |  | 12 |  | 1.6 | 15 |  | < 3.2 | O=C(Nc1ccc(C(=O)NCCN2CCCCC2)cc1)Nc1ccc(-c2nc(C3CCOCC3)nc(N3CCOCC3)n2)cc1 [Example 514, 4-[({4-[4-morpholin-4-yl-6-(tetrahydro-2H-pyran-4-yl)-1,3,5-triazin-2-yl]phenyl}carbamoyl)amino]-N-(2-piperidin-1-ylethyl)benzamide] |
| 1.55 nM | 3 |  | 12 |  | 0.4 | 7.6 |  |  | CC(C)N1CCN(C(=O)c2ccc(NC(=O)Nc3ccc(-c4nc(N5CCOCC5)nc(N5CCOCC5)n4)cc3)cc2)CC1 [Example 515, 1-[4-(4,6-dimorpholin-4-yl-1,3,5-triazin-2-yl)phenyl]-3-(4-{[4-(1-methylethyl)piperazin-1-yl]carbonyl}phenyl)urea] |
| 1.06 nM |  |  | 11 |  | 1.4 | 7.5 |  | 3 | CC(C)N1CCN(C(=O)c2ccc(NC(=O)Nc3ccc(-c4nc(O[C@H]5CCOC5)nc(N5CCOCC5)n4)cc3)cc2)CC1 [Example 522, 1-(4-{[4-(1-methylethyl)piperazin-1-yl]carbonyl}phenyl)-3-(4-{4-morpholin-4-yl-6-[(3S)-tetrahydrofuran-3-yloxy]-1,3,5-triazin-2-yl}phenyl)urea] |
| 53.4 nM |  |  | 73.7 |  | 2.1 | 11.1 |  | 32.3 | CCc1nc(-c2ccc(NC(=O)Nc3ccc(C(=O)N4CCN(c5ccccn5)CC4)cc3)cc2)nc(N2CCOCC2)n1 [Example 534, 1-[4-(4-ethyl-6-morpholin-4-yl-1,3,5-triazin-2-yl)phenyl]-3-{4-[(4-pyridin-2-ylpiperazin-1-yl)carbonyl]phenyl}urea] |
| 0.0085 nM |  |  | 161 |  | 1.1 | 16 |  | 9 | CN(C)CCN(C)C(=O)c1ccc(NC(=O)Nc2ccc(-c3nc(-c4ccccc4)nc(N4CCOCC4)n3)cc2)cc1 [Example 539, N-[2-(dimethylamino)ethyl]-N-methyl-4-({[4-(4-morpholin-4-yl-6-phenyl-1,3,5-triazin-2-yl)phenyl]carbamoyl}amino)benzamide] |
| 0.0034 nM |  |  | 309 |  | 54 | 121 |  | 165 | COC(=O)c1ccc(NC(=O)Nc2ccc(-c3nc(N4CCOC[C@@H]4C)nc(N4CCOC[C@@H]4C)n3)cc2)cc1 [Example 540, methyl 4-{[(4-{4,6-bis[(3S)-3-methylmorpholin-4-yl]-1,3,5-triazin-2-yl}phenyl)carbamoyl]amino}benzoate] |
| 17 nM | 964 |  | 1760 |  | 28 | 57 |  |  | O=C(Nc1ccc(C(=O)O)cc1)Nc1ccc(-c2nc(-c3ccccc3)nc(N3CCOCC3)n2)cc1 [Example 541, 4-({[4-(4-morpholin-4-yl-6-phenyl-1,3,5-triazin-2-yl)phenyl]carbamoyl}amino)benzoic acid] |
| 21.5 nM |  |  | 569 |  | 8 | 67 |  | 281 | Cc1ccc(-c2nc(-c3ccc(NC(=O)Nc4ccc(C(=O)NCCN(C)C)cc4)cc3)nc(N3CCOCC3)n2)cc1 [Example 542, N-[2-(dimethylamino)ethyl]-4-[({4-[4-(4-methylphenyl)-6-morpholin-4-yl-1,3,5-triazin-2-yl]phenyl}carbamoyl)amino]benzamide] |
| 42 nM | < 31 |  | 262 |  | 3.5 | 15.5 |  |  | CN1CCN(C(=O)c2ccc(NC(=O)Nc3ccc(-c4nc(-c5ccccc5)nc(N5CCOCC5)n4)cc3)cc2)CC1 [Example 543, 1-{4-[(4-methylpiperazin-1-yl)carbonyl]phenyl}-3-[4-(4-morpholin-4-yl-6-phenyl-1,3,5-triazin-2-yl)phenyl]urea] |
